For 38 compounds, EC50 results are on record in BindingDB's records for doi:10.7270/Q2TB15DB (Burnham Center For Chemical Genomics, 2011).

This experiment concerns the target T1, Endoribonuclease toxin MazF (Escherichia coli (strain K12), UniProt P0AE70).
T1 sequence (P0AE70 whole entry): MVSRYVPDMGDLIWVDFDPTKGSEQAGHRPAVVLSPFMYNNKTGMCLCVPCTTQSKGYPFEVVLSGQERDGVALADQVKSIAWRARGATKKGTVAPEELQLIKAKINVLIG
As to the kind of experiment: fluorescent RNA oligo signal without MazF, dose response, counter-screen for MazEF activator project, biochemical, fluorescence, single-stranded RNase substrate (AID 588502).

As a reminder, the EC50 is the midpoint of the concentration-response curve. A higher EC50 goes with weaker potency. On to `CCOc1ccc(N=CCC(=O)c2ccc(OC)cc2)c([N+](=O)[O-])c1`, for which the EC50 amounted to 6.29 µM.

In turn, `O=C1N=c2ccccc2=C1NNc1ccc(F)cc1` registered an EC50 of over 99 µM.

The compound `Cc1ccc(Cl)c2c1=NC(=O)C=2NNc1ccccc1` returned a 50% effective concentration (EC50) of 8.15 µM.

As for `N#CC(C(=O)c1ccc([N+](=O)[O-])o1)c1nc2ccccc2[nH]1` (stereo not drawn), the EC50 stood at 5.53 µM.

With `Cc1oc(C)c2c(=O)ccc3c(c12)OC(=N)C(C#N)C3c1ccccc1` (stereo not drawn), the EC50 is over 99 µM.

`CC1CC(=O)C2=C(C1)OC(=N)C(C#N)C2c1coc2ccccc2c1=O` (stereo not drawn) returned a concentration giving a half-maximal response (EC50) of over 99 µM.

Consider `O=C1N=c2ccccc2=C1NNc1ccccc1F`, for which the EC50 turned out to be 31.7 µM.

For `O=C1Nc2ccc([N+](=O)[O-])cc2C1=NNc1ccc(F)cc1`, a half-maximal effect (EC50) was put at 20.3 µM.

Turning to `Cc1ccc2nc(N3C(=O)C(=O)C(C(=O)c4ccco4)C3c3cccs3)sc2c1` (stereo not drawn), the EC50 was over 99 µM.

`Cc1cc(O)n(-c2ccc(NCc3ccc(Cl)cc3)c([N+](=O)[O-])c2)c1O` [1-{4-[(4-chlorobenzyl)amino]-3-nitrophenyl}-3-methylpyrrolidine-2,5-dione]: the concentration for a half-maximal effect (EC50) was over 99 µM.

Regarding `COc1ccc(Nc2oc3cc(=O)ccc-3cc2C(=O)NCC2CCCO2)c(OC)c1` (stereo not drawn) [2-(2,4-dimethoxyanilino)-7-oxo-N-(2-oxolanylmethyl)-1-benzopyran-3-carboxamide], the 50% effective concentration (EC50) was over 99 µM.

For the compound `CCCCOc1cccc(C2C(C(=O)c3ccc(C)o3)C(=O)C(=O)N2c2nnc(C)s2)c1` (stereo not drawn) [2-(3-butoxyphenyl)-3-(5-methylfuran-2-yl)carbonyl-1-(5-methyl-1,3,4-thiadiazol-2-yl)-4-oxidanyl-2H-pyrrol-5-one], the EC50 was determined as 20.4 µM.

For `CCOc1cccc(C2C(C(=O)c3ccc(C)o3)C(=O)C(=O)N2c2nccs2)c1` (stereo not drawn) [2-(3-ethoxyphenyl)-3-(5-methylfuran-2-yl)carbonyl-4-oxidanyl-1-(1,3-thiazol-2-yl)-2H-pyrrol-5-one], the EC50 was over 99 µM.

Compound `Cc1[nH]c2ccccc2c1/C=C1\N=C(c2ccc(F)cc2)OC1=O` [2-(4-fluorophenyl)-4-[(2-methyl-1H-indol-3-yl)methylene]-1,3-oxazol-5(4H)-one] displayed a 50% effective concentration (EC50) of 55.9 µM.

In turn, `Cc1nnc(N2C(=O)C(=O)C(C(=O)c3ccco3)C2c2ccc(C(C)(C)C)cc2)s1` (stereo not drawn) [2-(4-tert-butylphenyl)-3-(furan-2-carbonyl)-4-hydroxy-1-(5-methyl-1,3,4-thiadiazol-2-yl)-2H-pyrrol-5-one] returned an EC50 of 19.7 µM.

For the compound `O=[N+]([O-])c1ccc(N=NCc2ccccc2)c(F)c1` [2-fluoranyl-4-nitro-N-[(phenylmethylidene)amino]aniline], the EC50 is 27.2 µM.

Consider `O=C1C(=O)N(c2nccs2)C(c2ccccc2)C1C(=O)c1cc2ccccc2o1` (stereo not drawn) [3-(1-benzofuran-2-carbonyl)-4-hydroxy-2-phenyl-1-(1,3-thiazol-2-yl)-2H-pyrrol-5-one], for which the EC50 is over 99 µM.

`C=CCOc1cccc(C2C(C(=O)c3ccc(C)o3)C(=O)C(=O)N2c2nccs2)c1` (stereo not drawn) [3-(5-methylfuran-2-yl)carbonyl-4-oxidanyl-2-(3-prop-2-enoxyphenyl)-1-(1,3-thiazol-2-yl)-2H-pyrrol-5-one]: the concentration giving a half-maximal response (EC50) is over 99 µM.

Compound `CSc1ccc(C2C(C(=O)c3ccco3)C(=O)C(=O)N2c2nnc(SC)s2)cc1` (stereo not drawn) [3-(furan-2-carbonyl)-4-hydroxy-2-(4-methylsulfanylphenyl)-1-(5-methylsulfanyl-1,3,4-thiadiazol-2-yl)-2H-pyrrol-5-one] came in with an EC50 of over 99 µM.

For `O=C1Nc2ccccc2C1=NNc1ccccc1` [3-(phenylhydrazo)-2-indolone], the response was half-maximal at 54.6 µM (EC50).

`COc1cccc(C2=Nc3nnnn3C(c3ccc(N(C)C)cc3)C2)c1` (stereo not drawn) [4-[5-(3-methoxyphenyl)-1,7-dihydro-[1,2,3,4]tetrazolo[1,5-a]pyrimidin-7-yl]-N,N-dimethyl-aniline] gave an EC50 of over 99 µM.

Take `N#Cc1ccc(-n2c(O)c3[nH][nH]c(C(=O)c4ccc5ccccc5n4)c-3c2=O)cc1` [4-[(3aS,6aS)-4,6-dioxo-3-[oxo(2-quinolinyl)methyl]-3a,6a-dihydro-1H-pyrrolo[3,4-c]pyrazol-5-yl]benzonitrile]: a half-maximal response (EC50) required 0.271 µM. That is a sub-micromolar value.

As for `Cc1ccc(N/N=C2/C(=O)Nc3ccc(F)cc32)cc1` [5-fluoro-3-[2-(4-methylphenyl)hydrazono]indolin-2-one], the EC50 is 29.9 µM.

Compound `O=c1cc2oc(O)c3cc(O)c(O)c(O)c3c-2oc1=O` [6,8,9,10-tetrahydroxypyran[3,2-c]isochromene-2,3-quinone] came in with an EC50 of over 99 µM.

Turning to `COCc1n[nH]c2c1C(c1cc(OC)c(O)c(OC)c1)C(C#N)C(=N)O2` (stereo not drawn) [6-azanyl-4-(3,5-dimethoxy-4-oxidanyl-phenyl)-3-(methoxymethyl)-2,4-dihydropyrano[2,3-c]pyrazole-5-carbonitrile], the 50% effective concentration (EC50) was over 99 µM.

`Cn1c(C(C#N)C(=O)COc2ccc3ccccc3c2)nc2ccccc21` (stereo not drawn) [(2E)-2-(3-methyl-1H-benzimidazol-2-ylidene)-4-(2-naphthalenyloxy)-3-oxobutanenitrile] returned an EC50 of over 99 µM.

`COc1cc2c(cc1OC)C(CC(=O)c1ccc([N+](=O)[O-])c(C)c1)=NCC2` [(2Z)-2-(6,7-dimethoxy-3,4-dihydro-2H-isoquinolin-1-ylidene)-1-(3-methyl-4-nitrophenyl)ethanone] yielded an EC50 of 43.8 µM.

In the case of `O=C1N=c2ccccc2=C1NNc1cccc(Cl)c1` [(3E)-1H-indole-2,3-dione 3-[(3-chlorophenyl)hydrazone]], the half-maximal effective concentration (EC50) was over 99 µM.

Compound `CCCCN1C(=O)C(=NNc2ccccc2O)c2ccccc21` [(3Z)-1-butyl-3-[(2-hydroxyphenyl)hydrazinylidene]indol-2-one] gave a concentration giving a half-maximal response (EC50) of 69.5 µM.

`CCCN1C(=O)C(=NNc2ccc3ccccc3n2)c2ccccc21` [(3Z)-1-propyl-3-(2-quinolinylhydrazinylidene)-2-indolone]: the 50% effective concentration (EC50) is over 99 µM.

For the compound `Cc1ccc(NN=C2C(=O)N(CN3CCOCC3)c3ccccc32)cc1` [(3Z)-3-[(4-methylphenyl)hydrazinylidene]-1-(4-morpholinylmethyl)-2-indolone], the concentration giving a half-maximal response (EC50) turned out to be 50.5 µM.

Take `O=C(c1ccc2ccccc2n1)c1[nH][nH]c2c(O)n(-c3cccc(F)c3)c(=O)c1-2` [(3aS,6aS)-5-(3-fluorophenyl)-3-[oxo(2-quinolinyl)methyl]-3a,6a-dihydro-1H-pyrrolo[3,4-c]pyrazole-4,6-dione]: the EC50 was over 99 µM.

In turn, `N=C(N)C1=CC(=O)/C(=C/C=c2ccc(=C(N)N)cc2)C=C1` [(4E)-4-[2-[4-[bis(azanyl)methylidene]cyclohexa-2,5-dien-1-ylidene]ethylidene]-3-oxidanylidene-cyclohexa-1,5-diene-1-carboximidamide;2-oxidanylethanesulfonic acid] displayed a concentration for a half-maximal effect (EC50) of over 99 µM.

On to `O=C1NC(=O)N(C2CCCCC2)C(=O)C1=CCC=Nc1ccccc1` [(5Z)-5-[(E)-3-anilinoprop-2-enylidene]-1-cyclohexyl-1,3-diazinane-2,4,6-trione], for which the 50% effective concentration (EC50) came to 9.49 µM.

As for `Clc1cccc(C(Cc2nc3ccccc3[nH]2)N=Nc2ccccc2)c1` (stereo not drawn) [MLS000374846], the EC50 is over 99 µM.

In turn, `COc1ccc(CN=Nc2ccc([N+](=O)[O-])cc2S(=O)(=O)N2CCN(C)CC2)cc1` [MLS000553953] returned an EC50 of 8.43 µM.

Turning to `Cc1cccc(NNC2=c3cc(F)ccc3=NC2=O)c1` [MLS000673317], the 50% effective concentration (EC50) is over 99 µM.

Take `O=c1[nH]c(N=NCc2ccc(F)cc2)nc2ccccc12` [MLS000700887]: the concentration for a half-maximal effect (EC50) is over 99 µM.
